This passage reports remaining activity and IC50 results from patent US11149022B2, “Antagonists of the muscarinic acetylcholine receptor M4” (Vanderbilt University, priority 2017, dated 2021).

SMILES strings stand for the structures. A value given as a limit tells only on which side of the number the result lay.

The experiment addresses T1, Human M4 (Homo sapiens, UniProt P08173).
T1 construct: expressed in transfected cells; host or cells: CHO-K1 (ATCC), stably co-expressing chimeric G protein Gqi5
T1 sequence (P08173 1-479): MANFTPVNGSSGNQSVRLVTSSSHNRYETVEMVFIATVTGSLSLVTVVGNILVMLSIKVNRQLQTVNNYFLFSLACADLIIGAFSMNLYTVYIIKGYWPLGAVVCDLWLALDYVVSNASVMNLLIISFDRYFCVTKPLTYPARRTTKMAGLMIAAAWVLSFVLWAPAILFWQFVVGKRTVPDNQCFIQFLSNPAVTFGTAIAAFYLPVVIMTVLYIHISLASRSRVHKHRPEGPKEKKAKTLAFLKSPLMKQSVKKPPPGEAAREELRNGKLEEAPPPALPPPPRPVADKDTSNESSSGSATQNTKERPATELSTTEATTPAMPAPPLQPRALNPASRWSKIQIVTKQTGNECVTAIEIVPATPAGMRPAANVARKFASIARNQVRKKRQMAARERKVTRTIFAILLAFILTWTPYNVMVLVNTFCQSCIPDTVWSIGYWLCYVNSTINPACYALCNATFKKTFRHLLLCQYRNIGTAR
Put plainly: mAChR M4 cell-based functional assay (calcium flux, antagonist mode). Particulars: for remaining activity at 30 µM: % ACh maximum at 30 μM, read-out: Emin; for IC50: M4/Gqi5/CHO-K1 cells, concentration-dependent decrease of the EC80 acetylcholine response. The procedure:
Human or rat M4 cDNA, along with the chimeric G protein Gqi5, were transfected into Chinese hamster ovary (CHO-K1) cells purchased from the American Type Culture Collection using Lipofectamine2000. M4/Gqi5/CHO cells were grown in Ham's F-12 medium containing 10% heat-inactivated fetal bovine serum (FBS), 20 mM HEPES, 500 μg/mL G418 sulfate, and 200 μg/mL Hygromycin B.
For high throughput measurement of agonist-evoked increases in intracellular calcium, CHO-K1 cells stably expressing muscarinic receptors were plated in growth medium lacking G418 and hygromycin at 15,000 cells/20 μL/well in Greiner 384-well black-walled, tissue culture (TC)-treated, clear-bottom plates (VWR). Cells were incubated overnight at 37° C. and 5% CO2. The next day, cells were washed using an ELX 405 (BioTek) with assay buffer; the final volume was then aspirated to 20 μL, Next, 20 μL of a 2.3 μM stock of Fluo-4/acetoxymethyl ester (Invitrogen, Carlsbad, Calif.), prepared as a 2.3 μM stock in DMSO, mixed in a 1:1 ratio with 10% (w/v) Pluronic F-127 and diluted in assay buffer, was added to the wells and the cell plates were incubated for 50 min at 37° C. and 5% CO2. Dye was removed by washing with the ELX 405 and the final volume was aspirated to […]. Compound master plates were formatted in a 10 point concentration-response curve (CRC) format (1:3 dilutions) in 100% DMSO with a starting concentration of 10 or 1 mM using a BRAVO liquid handler (Agilent). Test compound CRCs were then transferred to daughter plates (240 nL) using the Echo acoustic plate reformatter (Labcyte, Sunnyvale, Calif.) and then diluted into assay buffer (40 μL) to a 2× stock using a Thermo Fisher Combi (Thermo Fisher Scientific, Waltham, Mass.).
Calcium flux was measured using the Functional Drug Screening System (FDSS) 6000 or 7000 (Hamamatsu Corporation, Tokyo, Japan) as an increase in the fluorescent static ratio. Compounds were applied to cells (20 μL, 2×) using the automated system of the FDSS at 2 seconds into the protocol and the data were collected at 1 Hz. At 143 s, 10 μL of an EC20 concentration of the muscarinic receptor agonist acetylcholine was added (5×), followed by the addition of 12 μL of an EC80 concentration of acetylcholine at the 268 s time point (5×). Agonist activity was analyzed as a concentration-dependent increase in calcium mobilization upon compound addition. Positive allosteric modulator activity was analyzed as a concentration-dependent increase in the EC20 acetylcholine response. Antagonist activity was analyzed as a concentration-dependent decrease in the EC80 acetylcholine response; for the purposes of the tables herein, an […] (inhibitory concentration 50) was calculated as a concentration-dependent decrease of the response elicited by an EC80 concentration of acetylcholine. Concentration-response curves were generated using a four-parameter logistical equation in XLFit curve fitting software (IDBS, Bridgewater, N.J.) for Excel (Microsoft, Redmond, Wash.) or Prism (GraphPad Software, Inc., San Diego, Calif.) or the Dotmatics software platform (Dotmatics, Bishop's Stortford, UK).
Compounds were synthesized as described above. Activity (IC50 and Emin) was determined in the mAChR M4 cell-based functional assay as described above and the data are shown in Table 4.

As to `Cc1cnn(C)c1-c1ccc(OC2CC3(CCN(CC4CCCCC4)CC3)C2)nn1` [Compound 34, 7-(cyclohexylmethyl)-2-[6-(2,4-dimethylpyrazol-3-yl)pyridazin-3-yl]oxy-7-azaspiro[3.5]nonane], the remaining activity at 30 µM is 4.38% and the IC50 – broadly, the concentration needed to halve the response being measured – was found to be 850 nM.
For `Cc1cnn(C)c1-c1ccc(OC2CC3(CCN(CC4CCOCC4)CC3)C2)nn1` [Compound 35, 2-[6-(2,4-dimethylpyrazol-3-yl)pyridazin-3-yl]oxy-7-(tetrahydropyran-4-ylmethyl)-7-azaspiro[3.5]nonane], in that order: 17.8% and 6370 nM.
With `Cc1cnn(C)c1-c1ccc(OC2CC3(CCN(CC4CCSCC4)CC3)C2)nn1` [Compound 36, 2-[6-(2,4-dimethylpyrazol-3-yl)pyridazin-3-yl]oxy-7-(tetrahydrothiopyran-4-ylmethyl)-7-azaspiro[3.5]nonane], the remaining activity at 30 µM amounted to 4.76% and the half-maximal inhibitory concentration (IC50) came out at 1210 nM.
For `Cc1cnn(C)c1-c1ccc(OC2CC3(CCN(Cc4ccccc4)CC3)C2)nn1` [Compound 37, 7-benzyl-2-[6-(2,4-dimethylpyrazol-3-yl)pyridazin-3-yl]oxy-7-azaspiro[3.5]nonane], the remaining activity at 30 µM worked out at 10.8% and the IC50 was 3450 nM.
Consider `Cc1cccnc1CN1CCC2(CC1)CC(Oc1ccc(-c3c(C)cnn3C)nn1)C2` [Compound 38, 2-[6-(2,4-dimethylpyrazol-3-yl)pyridazin-3-yl]oxy-7-[(3-methyl-2-pyridyl)methyl]-7-azaspiro[3.5]nonane], for which the remaining activity at 30 µM turned out to be 14.8% and the IC50 came to 7720 nM.
With `Cc1nn(C)cc1-c1ccc(NCC2CC3(CCN(CCC(C)(C)C)CC3)C2)nn1` [Compound 39, N-[[7-(3,3-Dimethylbutyl)-7-azaspiro[3.5]nonan-2-yl]methyl]-6-(1,3-dimethylpyrazol-4-yl)pyridazin-3-amine], the remaining activity at 30 µM stood at 4.55% and the concentration for half-maximal inhibition (IC50) was 220 nM.
As for `Fc1ccc(Cl)c(-c2ccc(NCC3CC4(CCN(CC5CC6C=CC5C6)CC4)C3)nn2)c1` (stereo not shown) [Compound 40, N-[[7-(5-bicyclo[2.2.1]hept-2-enylmethyl)-7-azaspiro[3.5]nonan-2-yl]methyl]-6-(2-chloro-5-fluoro-phenyl)pyridazin-3-amine], the remaining activity at 30 µM was found to be 2.63% and the IC50 was 240 nM.
For `CC(C)(C)CCN1CCC2(CC1)CC(CNc1ccc(-c3cc(F)ccc3Cl)nn1)C2` [Compound 41, 6-(2-chloro-5-fluoro-phenyl)-N-[[7-(3,3-dimethylbutyl)-7-azaspiro[3.5]nonan-2-yl]methyl]pyridazin-3-amine], the remaining activity at 30 µM stood at 2.42% and the IC50 amounted to 470 nM.
In the case of `Fc1ccc(Cl)c(-c2ccc(NCC3CC4(CCN(CC5CCCCC5)CC4)C3)nn2)c1` [Compound 42, 6-(2-chloro-5-fluoro-phenyl)-N-[[7-(cyclohexylmethyl)-7-azaspiro[3.5]nonan-2-yl]methyl]pyridazin-3-amine], the remaining activity at 30 µM is 6.27% and the IC50 was found to be 3140 nM.
Regarding `Fc1ccc(Cl)c(-c2ccc(NCC3CC4(CCN(CC5CCCOC5)CC4)C3)nn2)c1` (stereo not shown) [Compound 43, 6-(2-chloro-5-fluoro-phenyl)-N-[[7-(tetrahydropyran-3-ylmethyl)-7-azaspiro[3.5]nonan-2-yl]methyl]pyridazin-3-amine], the remaining activity at 30 µM stood at 5.29% and the half-maximal inhibitory concentration (IC50) worked out at 2280 nM.
In the case of `Fc1ccc(Cl)c(-c2ccc(NCC3CC4(CCN(CC5CCOCC5)CC4)C3)nn2)c1` [Compound 44, 6-(2-chloro-5-fluoro-phenyl)-N-[[7-(tetrahydropyran-4-ylmethyl)-7-azaspiro[3.5]nonan-2-yl]methyl]pyridazin-3-amine], the remaining activity at 30 µM was 4.66% and the IC50 was found to be 730 nM.
As for `Fc1ccc(Cl)c(-c2ccc(NCC3CC4(CCN(Cc5ccccc5)CC4)C3)nn2)c1` [Compound 45, N-[(7-benzyl-7-azaspiro[3.5]nonan-2-yl)methyl]-6-(2-chloro-5-fluoro-phenyl)pyridazin-3-amine], the remaining activity at 30 µM was determined as 5.72% and the half-maximal inhibitory concentration (IC50) stood at 1340 nM.
For `Fc1ccc(Cl)c(-c2ccc(NCC3CC4(CCN(Cc5ccccc5F)CC4)C3)nn2)c1` [Compound 46, 6-(2-chloro-5-fluoro-phenyl)-N-[[7-[(2-fluorophenyl)methyl]-7-azaspiro[3.5]nonan-2-yl]methyl]pyridazin-3-amine], the remaining activity at 30 µM was 9.19% and the half-inhibitory concentration (IC50) amounted to 780 nM.
For `Fc1ccc(Cl)c(-c2ccc(NCC3CC4(CCN(Cc5ccccn5)CC4)C3)nn2)c1` [Compound 47, 6-(2-chloro-5-fluoro-phenyl)-N-[[7-(2-pyridylmethyl)-7-azaspiro[3.5]nonan-2-yl]methyl]pyridazin-3-amine], the remaining activity at 30 µM came out at 5.52% and the 50% inhibitory concentration (IC50) came out at 1910 nM.
Regarding `COc1cccc(CN2CCC3(CC2)CC(CNc2ccc(-c4cc(F)ccc4Cl)nn2)C3)n1` [Compound 48, 6-(2-chloro-5-fluoro-phenyl)-N-[[7-[(6-methoxy-2-pyridyl)methyl]-7-azaspiro[3.5]nonan-2-yl]methyl]pyridazin-3-amine], the remaining activity at 30 µM was 4.48% and the IC50 came to 1740 nM.
With `Fc1ccc(Cl)c(-c2ccc(NCC3CC4(CCN(Cc5ccc6c(c5)OCO6)CC4)C3)nn2)c1` [Compound 49, N-[[7-(1,3-benzodioxol-5-ylmethyl)-7-azaspiro[3.5]nonan-2-yl]methyl]-6-(2-chloro-5-fluoro-phenyl)pyridazin-3-amine], the remaining activity at 30 µM worked out at 4.6% and the IC50 came to 2020 nM.
`Cc1nn(C)cc1-c1ccc(NCC2CC3(CCN(CC4CCCCC4)CC3)C2)nn1` [Compound 50, N-[[7-(cyclohexylmethyl)-7-azaspiro[3.5]nonan-2-yl]methyl]-6-(1,3-dimethylpyrazol-4-yl)pyridazin-3-amine]: the remaining activity at 30 µM amounted to 6.19% and the 50% inhibitory concentration (IC50) came out at 1160 nM.
For the molecule `Cc1nn(C)cc1-c1ccc(NCC2CC3(CCN(CC4CCCOC4)CC3)C2)nn1` (stereo not shown) [Compound 51, 6-(1,3-dimethylpyrazol-4-yl)-N-[[7-(tetrahydropyran-3-ylmethyl)-7-azaspiro[3.5]nonan-2-yl]methyl]pyridazin-3-amine], the remaining activity at 30 µM is 37.6% and the IC50 is more than 10000 nM.
Turning to `Cc1nn(C)cc1-c1ccc(NCC2CC3(CCN(CC4CCOCC4)CC3)C2)nn1` [Compound 52, 6-(1,3-dimethylpyrazol-4-yl)-N-[[7-(tetrahydropyran-4-ylmethyl)-7-azaspiro[3.5]nonan-2-yl]methyl]pyridazin-3-amine], the remaining activity at 30 µM is 30.8% and the IC50 was more than 10000 nM.
For `Cc1nn(C)cc1-c1ccc(NCC2CC3(CCN(Cc4ccccc4)CC3)C2)nn1` [Compound 53, N-[(7-benzyl-7-azaspiro[3.5]nonan-2-yl)methyl]-6-(1,3-dimethylpyrazol-4-yl)pyridazin-3-amine], the remaining activity at 30 µM was 8.66% and the IC50 was 2680 nM.
